Source: ChEMBL document CHEMBL5696441 (Nat Chem Biol, 2011)

Columns and labels:
[1] = target: Ribosomal protein S6 kinase alpha-4 (Homo sapiens) (UniProt O75676); experiment: Inhibition of N-terminal kinase domain RPS6KA4 (unknown origin) assessed as remaining activity at 1 uM by Kinome scan method relative to control
[2] = target: T1, Serine/threonine-protein kinase TAO3 (Homo sapiens) (UniProt Q9H2K8); experiment: Inhibition of TAOK3 (unknown origin) assessed as remaining activity at 1 uM by Kinome scan method relative to control
T1 sequence (whole entry): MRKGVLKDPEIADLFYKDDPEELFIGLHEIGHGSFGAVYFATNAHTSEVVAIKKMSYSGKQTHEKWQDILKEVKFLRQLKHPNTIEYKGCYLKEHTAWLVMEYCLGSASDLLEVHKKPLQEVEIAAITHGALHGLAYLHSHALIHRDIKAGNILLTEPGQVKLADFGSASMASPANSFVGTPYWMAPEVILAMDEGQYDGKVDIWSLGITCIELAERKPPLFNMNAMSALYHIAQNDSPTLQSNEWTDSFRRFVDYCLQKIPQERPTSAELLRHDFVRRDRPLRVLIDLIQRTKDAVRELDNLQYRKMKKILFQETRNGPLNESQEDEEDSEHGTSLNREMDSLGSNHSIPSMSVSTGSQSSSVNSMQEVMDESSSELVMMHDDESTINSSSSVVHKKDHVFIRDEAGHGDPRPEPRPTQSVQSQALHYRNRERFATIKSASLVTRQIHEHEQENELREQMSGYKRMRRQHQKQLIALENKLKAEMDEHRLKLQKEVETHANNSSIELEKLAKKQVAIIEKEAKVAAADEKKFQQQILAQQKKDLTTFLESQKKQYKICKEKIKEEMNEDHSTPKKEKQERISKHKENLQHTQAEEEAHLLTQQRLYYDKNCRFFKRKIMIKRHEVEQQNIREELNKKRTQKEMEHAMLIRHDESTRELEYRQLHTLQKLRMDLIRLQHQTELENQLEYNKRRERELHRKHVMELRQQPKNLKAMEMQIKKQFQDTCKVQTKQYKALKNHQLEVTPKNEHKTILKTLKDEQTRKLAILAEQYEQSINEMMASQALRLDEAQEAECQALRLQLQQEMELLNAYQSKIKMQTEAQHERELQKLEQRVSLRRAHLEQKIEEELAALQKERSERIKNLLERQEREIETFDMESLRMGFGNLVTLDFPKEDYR

[3] = target: T2, cGMP-dependent protein kinase 2 (Homo sapiens) (UniProt Q13237); experiment: Inhibition of PRKG2 (unknown origin) assessed as remaining activity at 1 uM by Kinome scan method relative to control
T2 sequence (whole entry): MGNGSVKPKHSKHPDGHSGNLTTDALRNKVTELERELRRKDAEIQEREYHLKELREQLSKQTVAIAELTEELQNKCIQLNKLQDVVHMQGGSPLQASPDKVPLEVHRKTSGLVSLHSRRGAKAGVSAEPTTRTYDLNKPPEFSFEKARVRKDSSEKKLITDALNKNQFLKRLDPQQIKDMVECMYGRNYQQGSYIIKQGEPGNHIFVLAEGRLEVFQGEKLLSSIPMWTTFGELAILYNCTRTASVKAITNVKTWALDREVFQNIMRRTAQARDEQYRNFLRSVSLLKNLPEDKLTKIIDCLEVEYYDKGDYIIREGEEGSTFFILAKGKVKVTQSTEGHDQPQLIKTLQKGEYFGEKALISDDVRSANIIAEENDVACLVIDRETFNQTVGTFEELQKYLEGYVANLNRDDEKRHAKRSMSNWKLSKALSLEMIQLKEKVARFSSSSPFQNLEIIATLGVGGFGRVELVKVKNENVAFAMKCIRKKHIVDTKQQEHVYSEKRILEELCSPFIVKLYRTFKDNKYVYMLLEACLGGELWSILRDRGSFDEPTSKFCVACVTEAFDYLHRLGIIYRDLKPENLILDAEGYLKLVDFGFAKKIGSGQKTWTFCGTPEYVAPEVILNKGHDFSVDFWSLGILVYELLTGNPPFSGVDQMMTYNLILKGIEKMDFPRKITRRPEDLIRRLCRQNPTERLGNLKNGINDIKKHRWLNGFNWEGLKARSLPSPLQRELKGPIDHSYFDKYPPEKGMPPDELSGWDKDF

[4] = target: Tyrosine-protein kinase Blk (Homo sapiens) (UniProt P51451); experiment: Inhibition of BLK (unknown origin) assessed as remaining activity at 1 uM by Kinome scan method relative to control
[5] = test system: Tyrosine-protein kinase ABL1 (Homo sapiens), P00519 [E255K]; experiment: Inhibition of ABL1 E255K mutant (unknown origin) assessed as remaining activity at 1 uM by Kinome scan method relative to control
[6] = target: Serine/threonine-protein kinase/endoribonuclease IRE1 (Homo sapiens) (UniProt O75460); experiment: Inhibition of ERN1 (unknown origin) assessed as remaining activity at 1 uM by Kinome scan method relative to control
[7] = target: Serine/threonine-protein kinase SIK2 (Homo sapiens) (UniProt Q9H0K1); experiment: Inhibition of SIK2 (unknown origin) assessed as remaining activity at 1 uM by Kinome scan method relative to control
[8] = target: T3, Serine/threonine-protein kinase BRSK1 (Homo sapiens) (UniProt Q8TDC3); experiment: Inhibition of BRSK1 (unknown origin) assessed as remaining activity at 1 uM by Kinome scan method relative to control
T3 sequence (whole entry): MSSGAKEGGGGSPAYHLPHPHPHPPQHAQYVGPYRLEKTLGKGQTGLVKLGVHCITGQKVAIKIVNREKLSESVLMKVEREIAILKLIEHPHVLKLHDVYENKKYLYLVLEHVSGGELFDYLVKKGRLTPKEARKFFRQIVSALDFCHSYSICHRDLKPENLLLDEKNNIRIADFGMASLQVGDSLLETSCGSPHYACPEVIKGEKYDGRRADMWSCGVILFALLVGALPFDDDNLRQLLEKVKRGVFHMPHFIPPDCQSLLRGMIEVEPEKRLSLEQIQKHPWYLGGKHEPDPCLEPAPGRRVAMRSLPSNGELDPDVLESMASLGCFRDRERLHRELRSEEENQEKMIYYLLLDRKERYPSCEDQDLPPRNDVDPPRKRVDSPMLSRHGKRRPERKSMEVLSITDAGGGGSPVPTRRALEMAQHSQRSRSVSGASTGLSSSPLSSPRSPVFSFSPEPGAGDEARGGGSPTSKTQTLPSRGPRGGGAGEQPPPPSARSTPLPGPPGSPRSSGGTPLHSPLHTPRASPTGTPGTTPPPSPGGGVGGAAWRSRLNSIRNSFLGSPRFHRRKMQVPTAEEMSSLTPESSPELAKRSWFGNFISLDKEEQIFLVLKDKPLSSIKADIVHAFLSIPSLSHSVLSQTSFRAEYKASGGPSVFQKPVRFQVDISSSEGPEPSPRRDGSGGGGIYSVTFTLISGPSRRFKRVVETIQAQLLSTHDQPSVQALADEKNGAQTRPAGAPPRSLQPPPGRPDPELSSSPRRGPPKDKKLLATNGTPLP

Chain of Ribosomal protein S6 kinase alpha-4 (Homo sapiens) (O75676 whole entry, looked up, the tested form may be a part): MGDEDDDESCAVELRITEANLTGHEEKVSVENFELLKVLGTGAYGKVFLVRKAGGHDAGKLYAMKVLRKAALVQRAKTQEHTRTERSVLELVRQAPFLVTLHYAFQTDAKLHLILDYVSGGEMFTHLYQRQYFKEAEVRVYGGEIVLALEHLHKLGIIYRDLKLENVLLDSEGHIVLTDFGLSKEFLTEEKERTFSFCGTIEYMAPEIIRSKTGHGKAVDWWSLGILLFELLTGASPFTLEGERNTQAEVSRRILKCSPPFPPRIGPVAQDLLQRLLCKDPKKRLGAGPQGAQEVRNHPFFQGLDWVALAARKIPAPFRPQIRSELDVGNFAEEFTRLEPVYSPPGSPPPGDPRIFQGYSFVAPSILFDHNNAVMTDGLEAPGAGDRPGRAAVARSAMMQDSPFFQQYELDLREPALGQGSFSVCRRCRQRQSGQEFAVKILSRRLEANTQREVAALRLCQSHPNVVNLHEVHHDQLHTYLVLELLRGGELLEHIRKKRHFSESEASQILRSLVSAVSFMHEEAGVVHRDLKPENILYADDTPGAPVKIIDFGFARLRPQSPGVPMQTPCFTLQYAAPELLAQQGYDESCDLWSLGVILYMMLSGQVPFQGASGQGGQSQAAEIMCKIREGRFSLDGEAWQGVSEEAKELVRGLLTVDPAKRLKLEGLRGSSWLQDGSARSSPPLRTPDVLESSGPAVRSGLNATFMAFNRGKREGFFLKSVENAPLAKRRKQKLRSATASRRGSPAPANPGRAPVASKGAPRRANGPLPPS
Chain of Serine/threonine-protein kinase SIK2 (Homo sapiens) (Q9H0K1 whole entry, looked up): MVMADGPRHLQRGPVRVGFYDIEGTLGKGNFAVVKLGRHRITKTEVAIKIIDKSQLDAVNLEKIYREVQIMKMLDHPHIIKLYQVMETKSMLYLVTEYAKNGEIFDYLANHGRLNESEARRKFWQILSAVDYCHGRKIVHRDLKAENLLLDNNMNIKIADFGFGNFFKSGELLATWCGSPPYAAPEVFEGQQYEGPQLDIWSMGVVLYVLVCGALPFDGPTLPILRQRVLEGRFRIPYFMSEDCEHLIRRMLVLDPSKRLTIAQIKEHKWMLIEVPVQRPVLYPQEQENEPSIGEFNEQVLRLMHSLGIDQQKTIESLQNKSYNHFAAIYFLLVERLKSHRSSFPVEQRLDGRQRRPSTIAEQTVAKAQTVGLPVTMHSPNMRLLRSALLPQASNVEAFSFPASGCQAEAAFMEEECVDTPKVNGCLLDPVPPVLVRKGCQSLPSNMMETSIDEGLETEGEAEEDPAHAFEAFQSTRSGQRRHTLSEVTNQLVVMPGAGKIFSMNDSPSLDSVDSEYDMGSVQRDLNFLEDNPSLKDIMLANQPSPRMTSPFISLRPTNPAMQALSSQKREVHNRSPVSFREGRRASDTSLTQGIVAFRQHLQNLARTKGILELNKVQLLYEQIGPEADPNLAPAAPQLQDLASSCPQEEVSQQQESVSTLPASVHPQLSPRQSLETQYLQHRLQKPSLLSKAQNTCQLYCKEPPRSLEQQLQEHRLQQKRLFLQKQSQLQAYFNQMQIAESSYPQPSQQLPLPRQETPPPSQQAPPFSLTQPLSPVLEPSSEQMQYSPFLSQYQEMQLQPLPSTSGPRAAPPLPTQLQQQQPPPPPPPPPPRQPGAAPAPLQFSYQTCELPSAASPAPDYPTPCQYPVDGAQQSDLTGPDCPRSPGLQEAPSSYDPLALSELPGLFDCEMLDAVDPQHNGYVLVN
Chain of Serine/threonine-protein kinase/endoribonuclease IRE1 (Homo sapiens) (O75460 19-977 limits assumed): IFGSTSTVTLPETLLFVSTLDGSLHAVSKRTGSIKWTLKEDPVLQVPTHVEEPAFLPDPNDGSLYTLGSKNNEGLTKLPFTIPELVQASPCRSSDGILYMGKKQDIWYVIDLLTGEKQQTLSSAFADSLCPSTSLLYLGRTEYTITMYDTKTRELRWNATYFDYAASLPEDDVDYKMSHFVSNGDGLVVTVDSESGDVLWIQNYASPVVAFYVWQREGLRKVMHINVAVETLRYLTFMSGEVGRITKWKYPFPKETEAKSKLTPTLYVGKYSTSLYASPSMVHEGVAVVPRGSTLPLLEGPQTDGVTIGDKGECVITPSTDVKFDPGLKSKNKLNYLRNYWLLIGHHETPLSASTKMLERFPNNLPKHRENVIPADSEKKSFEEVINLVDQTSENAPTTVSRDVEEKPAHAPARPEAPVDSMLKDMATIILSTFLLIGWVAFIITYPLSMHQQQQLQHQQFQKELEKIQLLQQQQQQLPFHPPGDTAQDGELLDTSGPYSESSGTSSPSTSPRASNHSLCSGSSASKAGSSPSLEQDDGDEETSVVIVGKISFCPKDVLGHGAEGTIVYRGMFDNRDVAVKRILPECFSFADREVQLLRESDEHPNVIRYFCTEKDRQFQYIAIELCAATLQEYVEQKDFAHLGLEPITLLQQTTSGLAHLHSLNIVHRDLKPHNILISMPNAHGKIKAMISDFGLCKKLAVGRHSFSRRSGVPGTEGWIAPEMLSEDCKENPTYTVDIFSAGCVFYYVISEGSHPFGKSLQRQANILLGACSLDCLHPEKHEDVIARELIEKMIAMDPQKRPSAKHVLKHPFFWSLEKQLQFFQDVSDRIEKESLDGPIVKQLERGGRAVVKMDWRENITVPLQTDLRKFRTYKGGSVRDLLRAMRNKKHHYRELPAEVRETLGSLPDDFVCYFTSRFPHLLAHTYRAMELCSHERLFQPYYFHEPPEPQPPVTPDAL
Chain of Tyrosine-protein kinase Blk (Homo sapiens) (P51451 2-505 limits assumed): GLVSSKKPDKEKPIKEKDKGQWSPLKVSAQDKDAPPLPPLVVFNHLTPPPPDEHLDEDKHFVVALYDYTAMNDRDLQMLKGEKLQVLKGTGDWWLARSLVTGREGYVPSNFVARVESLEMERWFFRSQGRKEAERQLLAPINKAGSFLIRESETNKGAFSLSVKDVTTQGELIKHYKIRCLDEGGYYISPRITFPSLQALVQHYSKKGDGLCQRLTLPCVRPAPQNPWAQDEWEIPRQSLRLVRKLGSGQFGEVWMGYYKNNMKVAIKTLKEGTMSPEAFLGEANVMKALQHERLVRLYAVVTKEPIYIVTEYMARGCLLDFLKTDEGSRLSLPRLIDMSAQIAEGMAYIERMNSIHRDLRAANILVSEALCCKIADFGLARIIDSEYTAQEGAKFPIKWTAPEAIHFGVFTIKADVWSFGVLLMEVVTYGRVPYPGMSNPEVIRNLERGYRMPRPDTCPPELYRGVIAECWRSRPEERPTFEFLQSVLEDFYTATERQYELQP
Chain of Tyrosine-protein kinase ABL1 (Homo sapiens), P00519 [E255K] (P00519 whole entry E255K): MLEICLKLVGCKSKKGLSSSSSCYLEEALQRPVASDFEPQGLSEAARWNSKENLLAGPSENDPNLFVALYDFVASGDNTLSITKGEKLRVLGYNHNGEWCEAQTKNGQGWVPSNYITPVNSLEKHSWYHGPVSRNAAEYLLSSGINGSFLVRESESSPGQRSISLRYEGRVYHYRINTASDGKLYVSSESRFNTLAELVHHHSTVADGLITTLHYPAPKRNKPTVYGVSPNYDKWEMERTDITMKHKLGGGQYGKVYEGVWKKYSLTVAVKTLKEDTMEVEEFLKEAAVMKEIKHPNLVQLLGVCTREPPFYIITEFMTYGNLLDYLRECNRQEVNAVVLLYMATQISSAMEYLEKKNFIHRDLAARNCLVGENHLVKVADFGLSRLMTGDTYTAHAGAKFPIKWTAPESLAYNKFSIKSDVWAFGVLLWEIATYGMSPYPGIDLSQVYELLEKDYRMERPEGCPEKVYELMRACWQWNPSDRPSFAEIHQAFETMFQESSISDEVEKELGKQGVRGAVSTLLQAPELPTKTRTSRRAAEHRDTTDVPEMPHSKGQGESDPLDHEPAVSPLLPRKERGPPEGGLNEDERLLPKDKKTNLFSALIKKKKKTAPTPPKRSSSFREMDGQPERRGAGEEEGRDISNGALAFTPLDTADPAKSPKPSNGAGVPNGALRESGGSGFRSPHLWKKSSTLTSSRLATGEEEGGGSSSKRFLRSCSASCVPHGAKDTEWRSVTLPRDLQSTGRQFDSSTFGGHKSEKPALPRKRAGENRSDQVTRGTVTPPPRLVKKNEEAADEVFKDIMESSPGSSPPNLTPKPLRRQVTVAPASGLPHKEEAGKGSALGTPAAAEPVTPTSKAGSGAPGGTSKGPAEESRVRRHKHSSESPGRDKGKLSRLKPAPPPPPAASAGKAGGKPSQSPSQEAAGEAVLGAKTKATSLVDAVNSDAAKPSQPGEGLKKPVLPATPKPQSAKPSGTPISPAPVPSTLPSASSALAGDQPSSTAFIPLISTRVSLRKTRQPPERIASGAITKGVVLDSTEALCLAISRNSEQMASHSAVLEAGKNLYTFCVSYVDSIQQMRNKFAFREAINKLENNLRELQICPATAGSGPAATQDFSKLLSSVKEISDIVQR

Compound	Activity [1] [%]	Activity [2] [%]	Activity [3] [%]	Activity [4] [%]	Activity [5] [%]	Activity [6] [%]	Activity [7] [%]	Activity [8] [%]
Nc1ccccc1Nc1ccc2c(c1)CCc1ccccc1C2=O	94	99	91	66	81	98	83	98
O=C1c2ccc(Nc3ccc(F)cc3F)cc2CCc2ccc(OC[C@H](O)CO)cc21 [Skepinone-L]	82	100	100	97	96	100	93	100
